# Source: publication PMC6120666 (The EMBO Journal, 2018)
# What was measured:
# Assay in all cases: Drug affinity chromatography with c-ponatinib and LC-MS/MS (ponatinib interactome)
# Type in all cases: binding
# [1] = target: T1, proteins of U2OS cell lysate (Homo sapiens, UniProt Q9UBM7)
# T1 construct: Proteins enriched by c-ponatinib from U2OS cell lysate; endogenous in cells; host or cells: U2OS cell lysate
# In short: (§1)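 Proteins were identified by nano-UPLC–MS/MS after elution with formic acid and trypsin digestion. They were captured from U2OS lysate (2 mg protein per pulldown, NP-40 buffer) on amine-coupled NHS beads during a 2 h incubation at 4 °C.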
# [2] = target: T2, proteins of U2OS cell lysate (Homo sapiens, UniProt P62701)
# T2 construct: Proteins enriched by c-ponatinib from U2OS cell lysate; endogenous in cells; host or cells: U2OS cell lysate
# In short: as §1
# [3] = target: T3, proteins of U2OS cell lysate (Homo sapiens, UniProt Q16186)
# T3 construct: Proteins enriched by c-ponatinib from U2OS cell lysate; endogenous in cells; host or cells: U2OS cell lysate
# In short: as §1
# [4] = target: T4, proteins of U2OS cell lysate (Homo sapiens, UniProt Q16891)
# T4 construct: Proteins enriched by c-ponatinib from U2OS cell lysate; endogenous in cells; host or cells: U2OS cell lysate
# T4 sequence (Q16891 34-758): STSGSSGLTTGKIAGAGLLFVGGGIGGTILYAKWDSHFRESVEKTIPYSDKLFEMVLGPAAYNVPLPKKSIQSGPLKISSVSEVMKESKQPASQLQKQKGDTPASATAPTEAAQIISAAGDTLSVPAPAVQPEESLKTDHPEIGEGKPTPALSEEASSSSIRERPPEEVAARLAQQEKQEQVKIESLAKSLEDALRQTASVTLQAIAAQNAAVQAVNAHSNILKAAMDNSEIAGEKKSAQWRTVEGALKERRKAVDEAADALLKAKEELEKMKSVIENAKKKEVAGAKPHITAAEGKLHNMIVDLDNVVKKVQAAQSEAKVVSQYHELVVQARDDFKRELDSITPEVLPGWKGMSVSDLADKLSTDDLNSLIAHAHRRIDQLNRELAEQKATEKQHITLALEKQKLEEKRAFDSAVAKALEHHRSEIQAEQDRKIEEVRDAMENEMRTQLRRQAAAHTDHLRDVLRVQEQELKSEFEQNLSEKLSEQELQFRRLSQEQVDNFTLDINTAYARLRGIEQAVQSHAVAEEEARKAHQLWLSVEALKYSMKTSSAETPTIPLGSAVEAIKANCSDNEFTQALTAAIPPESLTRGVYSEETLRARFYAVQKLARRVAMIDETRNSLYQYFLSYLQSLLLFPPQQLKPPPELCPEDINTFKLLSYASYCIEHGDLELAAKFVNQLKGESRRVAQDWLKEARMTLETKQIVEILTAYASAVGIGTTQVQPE
# In short: as §1
# [5] = target: T5, proteins of U2OS cell lysate (Homo sapiens, UniProt O75964)
# T5 construct: Proteins enriched by c-ponatinib from U2OS cell lysate; endogenous in cells; host or cells: U2OS cell lysate
# In short: as §1
# [6] = target: T6, proteins of U2OS cell lysate (Homo sapiens, UniProt P19338)
# T6 construct: Proteins enriched by c-ponatinib from U2OS cell lysate; endogenous in cells; host or cells: U2OS cell lysate
# In short: as §1
# [7] = target: T7, proteins of U2OS cell lysate (Homo sapiens, UniProt P63244)
# T7 construct: Proteins enriched by c-ponatinib from U2OS cell lysate; endogenous in cells; host or cells: U2OS cell lysate
# In short: as §1
# [8] = target: T8, proteins of U2OS cell lysate (Homo sapiens, UniProt P83436)
# T8 construct: Proteins enriched by c-ponatinib from U2OS cell lysate; endogenous in cells; host or cells: U2OS cell lysate
# T8 sequence (P83436 whole entry): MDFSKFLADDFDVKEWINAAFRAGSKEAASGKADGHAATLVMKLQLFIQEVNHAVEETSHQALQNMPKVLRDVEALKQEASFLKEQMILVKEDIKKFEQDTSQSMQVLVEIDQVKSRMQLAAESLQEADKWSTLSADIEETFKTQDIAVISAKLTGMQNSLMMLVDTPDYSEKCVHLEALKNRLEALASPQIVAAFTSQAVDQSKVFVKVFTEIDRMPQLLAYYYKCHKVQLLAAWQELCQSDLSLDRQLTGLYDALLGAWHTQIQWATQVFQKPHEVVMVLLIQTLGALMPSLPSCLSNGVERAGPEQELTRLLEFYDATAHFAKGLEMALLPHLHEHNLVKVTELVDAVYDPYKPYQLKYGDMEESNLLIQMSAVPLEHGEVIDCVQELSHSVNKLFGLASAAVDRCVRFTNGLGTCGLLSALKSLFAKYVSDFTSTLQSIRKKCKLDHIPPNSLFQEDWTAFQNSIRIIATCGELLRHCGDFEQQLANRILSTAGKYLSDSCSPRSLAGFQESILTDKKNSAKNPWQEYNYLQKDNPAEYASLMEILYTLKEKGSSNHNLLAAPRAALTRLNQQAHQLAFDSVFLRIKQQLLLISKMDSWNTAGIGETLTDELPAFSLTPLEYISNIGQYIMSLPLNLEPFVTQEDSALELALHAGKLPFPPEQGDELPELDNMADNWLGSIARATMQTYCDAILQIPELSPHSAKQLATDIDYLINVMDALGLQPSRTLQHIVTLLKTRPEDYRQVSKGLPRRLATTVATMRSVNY
# In short: as §1
# [9] = target: T9, proteins of U2OS cell lysate (Homo sapiens, UniProt Q99613)
# T9 construct: Proteins enriched by c-ponatinib from U2OS cell lysate; endogenous in cells; host or cells: U2OS cell lysate
# In short: as §1
# [10] = target: T10, proteins of U2OS cell lysate (Homo sapiens, UniProt O75369)
# T10 construct: Proteins enriched by c-ponatinib from U2OS cell lysate; endogenous in cells; host or cells: U2OS cell lysate
# In short: as §1
# [11] = target: T11, proteins of U2OS cell lysate (Homo sapiens, UniProt Q15393)
# T11 construct: Proteins enriched by c-ponatinib from U2OS cell lysate; endogenous in cells; host or cells: U2OS cell lysate
# T11 sequence (Q15393 whole entry): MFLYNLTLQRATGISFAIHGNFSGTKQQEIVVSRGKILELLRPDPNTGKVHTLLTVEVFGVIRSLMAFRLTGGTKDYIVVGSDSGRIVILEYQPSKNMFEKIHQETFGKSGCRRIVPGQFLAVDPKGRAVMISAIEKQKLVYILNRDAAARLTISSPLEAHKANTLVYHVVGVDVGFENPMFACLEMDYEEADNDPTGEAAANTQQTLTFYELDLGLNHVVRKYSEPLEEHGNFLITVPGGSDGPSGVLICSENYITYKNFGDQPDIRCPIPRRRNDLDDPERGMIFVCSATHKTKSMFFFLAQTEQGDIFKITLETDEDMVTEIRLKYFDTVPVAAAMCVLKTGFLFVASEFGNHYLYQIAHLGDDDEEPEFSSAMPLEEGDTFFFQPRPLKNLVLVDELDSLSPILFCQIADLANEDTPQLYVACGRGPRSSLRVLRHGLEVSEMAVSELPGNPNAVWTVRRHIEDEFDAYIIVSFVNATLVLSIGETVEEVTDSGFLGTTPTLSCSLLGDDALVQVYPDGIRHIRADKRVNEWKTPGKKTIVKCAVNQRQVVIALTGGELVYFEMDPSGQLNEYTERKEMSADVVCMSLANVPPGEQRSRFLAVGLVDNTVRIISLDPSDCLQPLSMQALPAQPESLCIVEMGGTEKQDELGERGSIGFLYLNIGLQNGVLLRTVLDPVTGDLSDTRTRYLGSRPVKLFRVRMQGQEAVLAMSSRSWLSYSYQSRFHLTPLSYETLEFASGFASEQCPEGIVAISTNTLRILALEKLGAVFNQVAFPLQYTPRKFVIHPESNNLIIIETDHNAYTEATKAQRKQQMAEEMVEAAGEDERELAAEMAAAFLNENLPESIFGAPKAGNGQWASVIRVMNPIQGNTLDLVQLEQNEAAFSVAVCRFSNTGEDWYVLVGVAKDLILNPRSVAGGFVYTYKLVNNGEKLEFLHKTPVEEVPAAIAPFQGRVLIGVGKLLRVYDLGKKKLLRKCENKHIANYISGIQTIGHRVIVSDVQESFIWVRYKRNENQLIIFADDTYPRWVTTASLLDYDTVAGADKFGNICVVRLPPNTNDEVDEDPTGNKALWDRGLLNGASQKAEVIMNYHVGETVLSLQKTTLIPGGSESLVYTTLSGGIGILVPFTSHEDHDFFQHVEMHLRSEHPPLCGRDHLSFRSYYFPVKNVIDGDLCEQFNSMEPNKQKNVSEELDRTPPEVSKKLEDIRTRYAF
# In short: as §1
# [12] = target: T12, proteins of U2OS cell lysate (Homo sapiens, UniProt P09619)
# T12 construct: Proteins enriched by c-ponatinib from U2OS cell lysate; endogenous in cells; host or cells: U2OS cell lysate
# T12 sequence (P09619 33-1106): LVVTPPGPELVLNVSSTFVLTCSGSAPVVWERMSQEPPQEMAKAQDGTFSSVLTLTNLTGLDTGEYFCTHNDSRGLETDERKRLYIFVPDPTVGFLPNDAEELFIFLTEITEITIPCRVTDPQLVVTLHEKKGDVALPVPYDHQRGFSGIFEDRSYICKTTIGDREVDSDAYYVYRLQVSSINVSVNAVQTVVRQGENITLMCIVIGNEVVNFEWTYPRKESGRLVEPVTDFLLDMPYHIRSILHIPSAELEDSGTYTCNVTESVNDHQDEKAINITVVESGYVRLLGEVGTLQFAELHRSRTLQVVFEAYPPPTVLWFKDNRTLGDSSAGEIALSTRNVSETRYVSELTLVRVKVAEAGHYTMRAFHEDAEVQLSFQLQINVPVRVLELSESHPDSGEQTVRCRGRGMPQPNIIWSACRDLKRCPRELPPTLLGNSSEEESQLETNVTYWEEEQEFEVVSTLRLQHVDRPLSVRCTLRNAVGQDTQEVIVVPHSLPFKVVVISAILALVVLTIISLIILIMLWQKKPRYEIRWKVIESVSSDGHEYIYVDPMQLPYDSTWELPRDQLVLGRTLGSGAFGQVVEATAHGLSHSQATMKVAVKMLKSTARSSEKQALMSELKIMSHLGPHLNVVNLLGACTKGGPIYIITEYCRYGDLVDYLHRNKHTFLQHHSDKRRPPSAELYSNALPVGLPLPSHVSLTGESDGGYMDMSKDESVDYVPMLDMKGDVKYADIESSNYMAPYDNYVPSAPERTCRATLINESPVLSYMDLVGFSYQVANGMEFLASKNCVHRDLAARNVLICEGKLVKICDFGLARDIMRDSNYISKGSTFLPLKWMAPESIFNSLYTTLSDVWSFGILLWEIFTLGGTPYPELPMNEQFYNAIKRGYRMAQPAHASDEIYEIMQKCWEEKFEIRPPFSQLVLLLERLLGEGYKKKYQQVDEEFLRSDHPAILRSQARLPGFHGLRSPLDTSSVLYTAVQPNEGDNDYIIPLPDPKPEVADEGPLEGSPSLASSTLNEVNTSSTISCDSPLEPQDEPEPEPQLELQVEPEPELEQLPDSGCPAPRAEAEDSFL
# In short: as §1
# [13] = target: T13, proteins of U2OS cell lysate (Homo sapiens, UniProt Q15019)
# T13 construct: Proteins enriched by c-ponatinib from U2OS cell lysate; endogenous in cells; host or cells: U2OS cell lysate
# In short: as §1
# [14] = target: T14, proteins of U2OS cell lysate (Homo sapiens, UniProt P23396)
# T14 construct: Proteins enriched by c-ponatinib from U2OS cell lysate; endogenous in cells; host or cells: U2OS cell lysate
# In short: as §1
# [15] = target: T15, proteins of U2OS cell lysate (Homo sapiens, UniProt Q9UP83)
# T15 construct: Proteins enriched by c-ponatinib from U2OS cell lysate; endogenous in cells; host or cells: U2OS cell lysate
# T15 sequence (Q9UP83 whole entry): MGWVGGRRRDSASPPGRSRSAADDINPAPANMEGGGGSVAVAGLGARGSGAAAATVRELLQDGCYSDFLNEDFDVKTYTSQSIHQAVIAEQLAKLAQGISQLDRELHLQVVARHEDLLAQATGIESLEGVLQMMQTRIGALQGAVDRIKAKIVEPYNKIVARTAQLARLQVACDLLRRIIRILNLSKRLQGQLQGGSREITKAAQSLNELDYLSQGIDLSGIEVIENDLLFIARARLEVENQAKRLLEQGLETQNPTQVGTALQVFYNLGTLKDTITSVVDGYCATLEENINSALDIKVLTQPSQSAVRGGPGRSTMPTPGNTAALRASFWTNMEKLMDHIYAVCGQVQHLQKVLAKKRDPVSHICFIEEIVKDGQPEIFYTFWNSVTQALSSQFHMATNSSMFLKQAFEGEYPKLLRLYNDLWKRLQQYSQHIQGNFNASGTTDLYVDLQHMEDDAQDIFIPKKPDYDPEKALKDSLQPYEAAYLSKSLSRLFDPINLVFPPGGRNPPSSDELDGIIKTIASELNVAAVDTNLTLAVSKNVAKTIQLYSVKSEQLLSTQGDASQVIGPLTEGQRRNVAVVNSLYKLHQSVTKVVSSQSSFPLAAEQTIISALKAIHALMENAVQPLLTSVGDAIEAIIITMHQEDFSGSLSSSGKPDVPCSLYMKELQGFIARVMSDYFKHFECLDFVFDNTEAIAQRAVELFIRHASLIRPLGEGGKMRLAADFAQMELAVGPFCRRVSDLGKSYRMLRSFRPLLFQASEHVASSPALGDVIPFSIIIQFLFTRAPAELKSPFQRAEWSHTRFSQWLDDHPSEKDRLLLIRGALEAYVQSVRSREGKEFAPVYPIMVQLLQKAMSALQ
# In short: as §1
# [16] = target: T16, proteins of U2OS cell lysate (Homo sapiens, UniProt Q14697)
# T16 construct: Proteins enriched by c-ponatinib from U2OS cell lysate; endogenous in cells; host or cells: U2OS cell lysate
# In short: as §1
# [17] = target: T17, proteins of U2OS cell lysate (Homo sapiens, UniProt Q13247)
# T17 construct: Proteins enriched by c-ponatinib from U2OS cell lysate; endogenous in cells; host or cells: U2OS cell lysate
# T17 sequence (Q13247 whole entry): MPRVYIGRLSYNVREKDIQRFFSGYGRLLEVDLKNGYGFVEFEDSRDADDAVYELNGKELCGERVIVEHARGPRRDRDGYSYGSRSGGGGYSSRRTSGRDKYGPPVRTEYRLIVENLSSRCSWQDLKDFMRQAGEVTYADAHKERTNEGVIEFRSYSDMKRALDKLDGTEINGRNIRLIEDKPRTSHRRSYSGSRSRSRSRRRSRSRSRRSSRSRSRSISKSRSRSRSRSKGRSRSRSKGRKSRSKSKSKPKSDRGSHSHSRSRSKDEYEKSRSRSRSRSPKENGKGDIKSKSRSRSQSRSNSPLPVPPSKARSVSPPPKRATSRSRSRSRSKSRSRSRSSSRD
# In short: as §1
compound,measurement,setting,value
Cc1ccc(C(=O)Nc2ccc(CN3CCN(C)CC3)c(C(F)(F)F)c2)cc1C#Cc1cnc2cccnn12 [PON],Average LFQ PON_WT,"[1]; DHCR7, 7-dehydrocholesterol reductase",21.6093
same,Average LFQ PON_WT,"[2]; RPS4X, 40S ribosomal protein S4, X isoform",22.7536
same,Average LFQ PON_WT,"[3]; ADRM1, Proteasomal ubiquitin receptor ADRM1",22.2159
same,Average LFQ PON_WT,"[4]; IMMT, Mitochondrial inner membrane protein",22.0335
same,Average LFQ PON_WT,"[5]; ATP5L, ATP synthase subunit g, mitochondrial",22.9891
same,Average LFQ PON_WT,"[6]; NCL, Nucleolin",23.1289
same,Average LFQ PON_WT,"[7]; GNB2L1, Guanine nucleotide-binding protein subunit beta-2-like 1",22.5999
same,Average LFQ PON_WT,"[8]; COG7, Conserved oligomeric Golgi complex subunit 7",22.1578
same,Average LFQ PON_WT,"[9]; EIF3C;EIF3CL, Eukaryotic translation initiation factor 3 subunit C",21.9967
same,Average LFQ PON_WT,"[10]; FLNB, Filamin-B",21.8609
same,Average LFQ PON_WT,"[11]; SF3B3, Splicing factor 3B subunit 3",22.7469
same,Average LFQ PON_WT,"[12]; PDGFRB, Platelet-derived growth factor receptor beta",22.3008
same,Average LFQ PON_WT,"[13]; SEPT2, Septin-2",22.2443
same,Average LFQ PON_WT,"[14]; RPS3, 40S ribosomal protein S3",21.7356
same,Average LFQ PON_WT,"[15]; COG5, Conserved oligomeric Golgi complex subunit 5",22.09
same,Average LFQ PON_WT,"[16]; GANAB, Neutral alpha-glucosidase AB",22.2601
same,Average LFQ PON_WT,"[17]; SRSF6, Serine/arginine-rich splicing factor 6",21.8714
"Cc1ccc(C(=O)Nc2ccc(CN3CCN(CCCN)CC3)c(C(F)(F)F)c2)cc1C#Cc1cnc2cccnn12 [c-ponatinib, reference compound]",Average LFQ intensity,"[1]; captured protein DHCR7, Rank 220",21.6093
same,Average LFQ intensity,"[2]; captured protein RPS4X, Rank 140",22.7536
same,Average LFQ intensity,"[3]; captured protein ADRM1, Rank 178",22.2159
same,Average LFQ intensity,"[4]; captured protein IMMT, Rank 188",22.0335
same,Average LFQ intensity,"[5]; captured protein ATP5L, Rank 125",22.9891
same,Average LFQ intensity,"[6]; captured protein NCL, Rank 117",23.1289
same,Average LFQ intensity,"[7]; captured protein GNB2L1, Rank 153",22.5999
same,Average LFQ intensity,"[8]; captured protein COG7, Rank 182",22.1578
same,Average LFQ intensity,"[9]; captured protein EIF3C;EIF3CL, Rank 191",21.9967
same,Average LFQ intensity,"[10]; captured protein FLNB, Rank 198",21.8609
same,Average LFQ intensity,"[11]; captured protein SF3B3, Rank 141",22.7469
same,Average LFQ intensity,"[12]; captured protein PDGFRB, Rank 168",22.3008
same,Average LFQ intensity,"[13]; captured protein 2002-09-01 (Septin-2), Rank 174",22.2443
same,Average LFQ intensity,"[14]; captured protein RPS3, Rank 210",21.7357
same,Average LFQ intensity,"[15]; captured protein COG5, Rank 186",22.09
same,Average LFQ intensity,"[16]; captured protein GANAB, Rank 172",22.2601
same,Average LFQ intensity,"[17]; captured protein SRSF6, Rank 196",21.8714
